Patent publication US20240294545A1 (CSPC Zhongqi Pharmaceutical Technology (Shijiazhuang) Co., …, priority 2020, published 2024)
Marks after values point to notes of the source that are not given here.

Columns and labels:
[1] = tested on: subcutaneous xenograft tumor of human non-small cell lung cancer cell line NCI-H441; assay: NCI-H441 subcutaneous xenograft, combined with irinotecan liposome injection; type: in vivo, NU/NU mice; details: for D 17 TGI / D 17 TV (MEAN ± SD) / Tumor weight / Tumor weight inhibitory rate: compound 25 mg/kg intragastric + irinotecan liposome 2.5 mg/kg ip; for D 17 TGI / D 17 TV (MEAN ± SD): day 17; for Tumor weight / Tumor weight inhibitory rate: end of test d17
Protocol: 6 Efficacy Test of the Compounds of the Present Disclosure Combined with Irinotecan Liposome Injection on Inhibiting the Growth of Subcutaneous Xenograft Tumor of Human Non-Small Cell Lung Cancer Cell Line NCI-H441
6.1 Experimental Animals: NU/NU Mice, SPF, Female, 20 to 30 g.
Irinotecan liposome injection (HE072), 43 mg:10 mL, milky white liquid, batch No. B37191202, provided by Preparation Research Institute 2 from CSPC Zhongqi Pharmaceutical Technology (Shijiazhuang) Co., Ltd., diluted to an appropriate concentration with 5% glucose injection while testing.
NCI-H441 cells, provided by Nanjing Kebai Biotechnology Co., Ltd.; 1640 culture medium (gibco Company):fetal bovine serum (Lanzhou Bailing)=90%:10%, 37° C., 5% CO2.
NU/NU nude mice were subcutaneously inoculated with NCI-H441 human non-small cell lung cancer cells. When the mean tumor volume reached 170 to 172 mm^3 (15 days after inoculation), the animals were evenly divided into groups according to the tumor volume (d0), with 6 mice in each group. 2.5 mg/kg of HE072 was administered intraperitoneally once a week for 2 times. Vehicle control, 25 mg/kg of A-193, 25 mg/kg of A-182, and 25 mg/kg of AZD1390 were administered intragastrically once a day, from Monday to Thursday every week except Friday to Sunday, for 2 weeks (8 times). The tumor volume was measured twice a week, the body weight of mouse was weighed every day, and the data were recorded. The tumor volume (TV) was calculated according to the formula: TV=½×a×b2, wherein a and b represent the long and short diameters of tumor, respectively. Tumor growth inhibitory rate TGI (%)=[1−(Ti−T0)/(Vi−V0)]×100, wherein Ti represents the mean tumor volume of a given treatment group on a certain day; TO represents the mean tumor volume of this treatment group at the beginning of administration; Vi represents the mean tumor volume of the vehicle control group on a certain day (the same day as that in Ti); V0 represents the mean tumor volume of the vehicle control group at the beginning of administration. At the end of the test (d17), the animals were sacrificed, the tumors were stripped and weighed, and the tumor weight inhibitory rates were calculated.

[2] = tested on: subcutaneous xenograft tumor of human glioblastoma LN-18; assay: LN-18 subcutaneous xenograft, combined with radiotherapy; type: in vivo, NOG mice; details: compound 10 mg/kg intragastric qd × 5 + IR 1 Gy, day 17
Method in brief: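 Female NOG mice (18–22 g) bearing subcutaneous LN-18 tumours (1.5*10^7 cells, right costal region) were grouped at 100–150 mm^3; radiotherapy followed compound dosing by 1 h. Caliper volumes twice weekly (0.5×long×short^2); TGI % derived from treated vs control mean volume changes from day 0.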

[3] = tested on: Human glioblastoma cell line LN-18; assay: LN18 cell proliferation combined with radiotherapy (CTG assay); type: cell-based; details: Homo sapiens, LN-18, light or radiation study; LN18 cells, 1 Gy irradiation 1 h after compound, 6 days, CTG;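 also: readout is CTG luminescence proliferation not KAP1 phosphorylation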
Protocol: 5 Test of the Inhibitory Activities of the Compounds of the Present Disclosure Combined with Radiotherapy on LN18 Cell Proliferation
• Cell: Human glioblastoma cell line LN-18
5.2 Experimental Procedures
• (1) Cell inoculation • 1) The cell culture fluid was preheated at 37° C. • 2) A complete culture medium of LN18 cells was prepared, at a ratio of DMEM medium:FBS=95:5 (V/V). • 3) Cells were digested with trypsin, collected to serve as a cell suspension, and counted, the cell suspension was then added into a 96-well plate at 1500 cells/well and 100 μL of cell fluid/well, and three parallel wells were set. • 4) After inoculated in the plate, the cells were cultured overnight under the condition of 37° C. and 5% CO2. • (2) Compound addition and incubation • 1) AZD1390 and tested compounds, respectively, were sequentially diluted 5 times with DMSO, starting from the concentration of 10 mM and yielding the concentrations of 10, 2, 0.4, 0.08, 0.016, 0.0032, 0.00064, 0.000128, and 0.0000256 mM in turn. The compound solutions at the above concentrations were diluted 5000 times with the complete culture medium. The final 2× concentrations were in order 2000, 400, 80, 16, 3.2, 0.64, 0.128, 0.0256, and 0.00512 nM. The vehicle control was 0.02% DMSO culture fluid. • 2) A complete culture medium containing 100 μL of the compound solution was added to each well, and the final concentrations of the compounds in the wells were in order 1000, 200, 40, 8, 1.6, 0.32, 0.064, 0.0128, and 0.00256 nM. The 0.01% DMSO culture fluid was contained in the vehicle control well. After incubated with compound for 1 h, the cells were irradiated at a dose of 1 Gy. • 3) After irradiation, the plate was put into an incubator and incubated under the condition of 37° C. and 5% CO2 for 6 days. Then detection was performed by adopting CTG assay (100 μL of liquid from each well was sucked out and discarded, and 50 μL of CTG reagent was added to each well, and incubated at room temperature for 30 min, and the luminescence intensity was detected). • (3) Data analysis • 1) The Luminescence signal (RLU) of each well was detected. • 2) Proliferation inhibitory activity was calculated according to the formula: % inhibitory activity=RLUtreatment/RLUAvg(Vehicle)*100. 5.3 the Inhibitory Activities of Compounds of the Present Disclosure Combined with Radiotherapy on LN18 Cell Proliferation

ATM = ATM (Homo sapiens (Human), UniProt Q13315); assay: Caliper mobility shift assay for ATM; type: biochemical; details: read-out: IC50 of inhibitory activity on ATM kinase
Sequence of ATM (Q13315 whole entry): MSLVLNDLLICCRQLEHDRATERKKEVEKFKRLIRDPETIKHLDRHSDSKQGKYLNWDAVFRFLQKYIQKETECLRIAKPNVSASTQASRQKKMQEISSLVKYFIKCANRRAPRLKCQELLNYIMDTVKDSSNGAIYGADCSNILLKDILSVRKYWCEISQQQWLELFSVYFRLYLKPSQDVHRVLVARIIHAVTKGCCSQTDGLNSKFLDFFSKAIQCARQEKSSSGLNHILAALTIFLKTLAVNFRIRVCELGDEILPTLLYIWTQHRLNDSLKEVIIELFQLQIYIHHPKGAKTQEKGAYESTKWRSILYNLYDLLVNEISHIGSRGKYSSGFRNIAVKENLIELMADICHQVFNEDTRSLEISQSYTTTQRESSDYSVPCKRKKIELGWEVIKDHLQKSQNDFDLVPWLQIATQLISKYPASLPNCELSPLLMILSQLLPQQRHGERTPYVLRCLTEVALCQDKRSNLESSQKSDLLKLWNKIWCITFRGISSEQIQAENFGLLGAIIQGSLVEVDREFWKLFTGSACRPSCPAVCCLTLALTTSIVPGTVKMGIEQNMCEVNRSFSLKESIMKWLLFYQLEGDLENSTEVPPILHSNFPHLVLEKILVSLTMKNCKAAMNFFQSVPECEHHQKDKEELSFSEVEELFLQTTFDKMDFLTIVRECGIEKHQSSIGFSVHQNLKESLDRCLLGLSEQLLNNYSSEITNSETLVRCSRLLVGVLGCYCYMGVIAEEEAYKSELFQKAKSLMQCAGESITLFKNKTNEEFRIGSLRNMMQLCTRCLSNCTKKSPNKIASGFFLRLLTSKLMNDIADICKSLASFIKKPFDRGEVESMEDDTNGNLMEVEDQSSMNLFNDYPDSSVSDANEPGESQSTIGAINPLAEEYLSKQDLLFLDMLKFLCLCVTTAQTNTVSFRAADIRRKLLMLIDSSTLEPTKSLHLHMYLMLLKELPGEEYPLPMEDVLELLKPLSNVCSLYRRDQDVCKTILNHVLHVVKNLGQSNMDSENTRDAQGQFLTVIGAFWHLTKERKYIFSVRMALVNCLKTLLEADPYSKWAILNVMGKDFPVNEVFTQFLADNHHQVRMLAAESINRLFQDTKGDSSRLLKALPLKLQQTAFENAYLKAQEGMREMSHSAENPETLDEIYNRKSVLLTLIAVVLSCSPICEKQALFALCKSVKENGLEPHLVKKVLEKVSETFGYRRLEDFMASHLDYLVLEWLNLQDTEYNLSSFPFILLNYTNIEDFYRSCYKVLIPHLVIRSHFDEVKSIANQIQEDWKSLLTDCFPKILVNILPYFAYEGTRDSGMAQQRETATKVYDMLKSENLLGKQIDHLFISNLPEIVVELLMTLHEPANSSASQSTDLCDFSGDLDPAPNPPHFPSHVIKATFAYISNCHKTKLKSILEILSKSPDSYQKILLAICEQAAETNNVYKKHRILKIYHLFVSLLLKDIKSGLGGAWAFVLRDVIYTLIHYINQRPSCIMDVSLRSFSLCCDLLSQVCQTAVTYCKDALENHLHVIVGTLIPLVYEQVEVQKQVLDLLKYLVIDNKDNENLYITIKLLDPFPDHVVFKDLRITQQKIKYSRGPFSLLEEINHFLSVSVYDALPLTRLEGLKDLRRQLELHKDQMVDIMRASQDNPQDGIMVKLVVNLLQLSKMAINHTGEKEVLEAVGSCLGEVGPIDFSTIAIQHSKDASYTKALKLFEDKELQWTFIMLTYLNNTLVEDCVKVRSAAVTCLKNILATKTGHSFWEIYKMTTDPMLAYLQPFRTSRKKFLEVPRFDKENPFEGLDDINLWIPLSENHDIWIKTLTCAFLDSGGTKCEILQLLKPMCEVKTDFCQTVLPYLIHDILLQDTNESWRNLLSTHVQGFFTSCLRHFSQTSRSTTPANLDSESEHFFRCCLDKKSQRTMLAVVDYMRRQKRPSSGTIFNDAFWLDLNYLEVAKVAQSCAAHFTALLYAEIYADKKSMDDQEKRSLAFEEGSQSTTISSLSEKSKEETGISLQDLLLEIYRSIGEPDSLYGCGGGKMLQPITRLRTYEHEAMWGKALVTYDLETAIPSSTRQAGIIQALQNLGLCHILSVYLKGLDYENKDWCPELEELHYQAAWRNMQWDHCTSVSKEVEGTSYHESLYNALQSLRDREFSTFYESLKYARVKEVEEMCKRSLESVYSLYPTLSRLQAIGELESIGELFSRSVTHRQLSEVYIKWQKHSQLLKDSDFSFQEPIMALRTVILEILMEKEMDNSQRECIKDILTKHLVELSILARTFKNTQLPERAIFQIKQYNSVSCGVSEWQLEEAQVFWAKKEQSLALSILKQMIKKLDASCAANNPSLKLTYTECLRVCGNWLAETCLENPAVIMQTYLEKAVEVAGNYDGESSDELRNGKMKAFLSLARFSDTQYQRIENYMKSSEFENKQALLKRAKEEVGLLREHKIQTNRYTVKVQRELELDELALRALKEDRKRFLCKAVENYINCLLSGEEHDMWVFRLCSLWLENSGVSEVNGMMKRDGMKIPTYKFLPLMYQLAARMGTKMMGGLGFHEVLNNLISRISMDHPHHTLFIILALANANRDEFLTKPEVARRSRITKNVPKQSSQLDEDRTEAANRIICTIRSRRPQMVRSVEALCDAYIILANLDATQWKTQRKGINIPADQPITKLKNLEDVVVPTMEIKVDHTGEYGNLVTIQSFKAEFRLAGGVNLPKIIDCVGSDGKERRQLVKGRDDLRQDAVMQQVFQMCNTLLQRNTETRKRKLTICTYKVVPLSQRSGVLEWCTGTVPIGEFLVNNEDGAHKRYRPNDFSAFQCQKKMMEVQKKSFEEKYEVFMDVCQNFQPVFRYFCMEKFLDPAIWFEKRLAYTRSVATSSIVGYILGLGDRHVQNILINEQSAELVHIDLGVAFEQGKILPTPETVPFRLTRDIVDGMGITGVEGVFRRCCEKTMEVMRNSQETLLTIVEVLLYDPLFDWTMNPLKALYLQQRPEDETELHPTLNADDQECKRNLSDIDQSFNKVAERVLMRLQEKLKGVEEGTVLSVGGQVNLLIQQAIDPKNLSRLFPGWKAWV
Protocol: 1.2 Determination of the Inhibitory Activities of Compounds on ATM: Caliper Mobility Shift Assay for ATM
To a 96-well plate, 98 μL of DMSO and 2 μL of the 10 mM stock solution were added and mixed evenly so that the concentration of the solution was 200 μM.
Based on the inhibitory rates of the compound at different concentrations, IC50 was calculated according to the formula: Y=Bottom+(Top−Bottom)/(1+(IC50/X)^HillSlope).

## CC(C)n1c(=O)n(C)c2cnc3cc(F)c(-c4ccc(OCCCN5CCCCC5)nc4)cc3c21 [AZD1390, reference compound]
[1]
  D 17 TGI: 60.3%
  D 17 TV (MEAN ± SD): 342.8 ± 110.6*** mm^3
  Tumor weight: 0.32 ± 0.09 g
  Tumor weight inhibitory rate: 45.3%
[2]
  D 17 TGI: 82.8%
  D 17 TV (MEAN ± SD): 294 ± 52***^# mm^3
[3]
  IC50: 2.79 nM
ATM
  IC50: 0.2 nM

## Cn1c(=O)n2c3c4c(c(-c5ccc(OCCCN6CCCCC6)nc5)c(F)cc4ncc31)NCC2(C)C [Example A-193, 6-fluoro-2,10,10-trimethyl-7-(6-(3-(piperidin-1-yl)propoxy)pyridin-3-yl)-2,8,9,10-tetrahydro-1H-2,4,8,10a-tetraazanaphtho[2,1,8-cde]azulen-1(2H)-one]
[1]; combined with irinotecan liposome injection, compared with AZD1390
  inhibitory effect on tumor volume and tumor weight, in words: higher than those of AZD1390
[1]
  D 17 TGI: 87.5%
  D 17 TV (MEAN ± SD): 225.9 ± 69.4***^### mm^3
  Tumor weight: 0.24 ± 0.06 g
  Tumor weight inhibitory rate: 60.2%
[2]
  D 17 TGI: 81.1%
  D 17 TV (MEAN ± SD): 310 ± 61***^# mm^3
[3]
  IC50: 10.1 nM
ATM
  IC50: 0.65 nM
